Values after ≈ are worked out from the molar mass of the structure shown. Where two headings read alike, the source gives them in different places.
What was measured:
[1] = tested on: Bacteroides fragilis ATCC 23745; assay: in vitro antibacterial activity, standard agar dilution method; type: cell-based; conditions: ATCC23745, anaerobic, read-out: minimum inhibitory concentration (MIC)
[2] = tested on: Bacillus subtilis PCI 219; assay: as above; type: cell-based; conditions: PCI219, aerobic, read-out: minimum inhibitory concentration (MIC)
[3] = tested on: Pseudomonas aeruginosa 4au542; assay: in vivo therapeutic efficacy, lethal systemic infection in mice; conditions: po, 120 h, P. aeruginosa 4au542 i.p. infection, ICR mice, p.o. at time of injection, mortality 5 days, read-out: 50% effective dose (ED50)
Procedure: The in vivo antibacterial activities of pyrido[3,2,1-ij]-1,3,4-benzoxadiazine derivatives prepared by Example 5, Example 30, Example 65 and Example 66 as mentioned below were tested against lethal infection of Escherichia coli ML4707, Pseudomonas aeruginosa 4au542 and Streptococcus pneumoniae 6-001. ICR mice weighing about 20 g were infected by intraperitoneal injection of a corresponding bacterial suspension. The test compounds were administered orally or subcutaneously at the time of injection. […] The respective 50% effective dose (ED50, mg/kg) which protects 50% of the animals from death caused by infection, is shown in Table 3.

[4] = tested on: Enterobacter aerogenes NR 2945; assay: in vitro antibacterial activity, standard agar dilution method; type: cell-based; conditions: Klebsiella aerogenes, NR2945, aerobic, read-out: minimum inhibitory concentration (MIC)
[5] = tested on: Bacteroides thetaiotaomicron NR 2588; assay: as above; type: cell-based; conditions: NR2588, anaerobic, read-out: minimum inhibitory concentration (MIC)
[6] = tested on: Clostridium perfringens NR 2612; assay: microbe, parasite or virus in culture; type: cell-based; conditions: NR2612, read-out: minimum inhibitory concentration (MIC)
[7] = tested on: Salmonella typhimurium IFO 12529; assay: in vitro antibacterial activity, standard agar dilution method; type: cell-based; conditions: Salmonella enterica, aerobic, read-out: minimum inhibitory concentration (MIC)
[8] = tested on: Clostridium moniliforme ATCC 25546; assay: as above; type: cell-based; conditions: ATCC25546, anaerobic, read-out: minimum inhibitory concentration (MIC)
[9] = tested on: Peptococcus variabilis ATCC 14955; assay: as above; type: cell-based; conditions: anaerobic, read-out: minimum inhibitory concentration (MIC)
[10] = tested on: Bacteroides fragilis NR 2582; assay: as above; type: cell-based; conditions: NR2582, anaerobic, read-out: minimum inhibitory concentration (MIC)
[11] = tested on: Pseudomonas aeruginosa A3; assay: as above; type: cell-based; conditions: aerobic, read-out: minimum inhibitory concentration (MIC)
[12] = tested on: Staphylococcus epidermidis NR 2942; assay: as above; type: cell-based; conditions: NR2942, aerobic, read-out: minimum inhibitory concentration (MIC)
[13] = tested on: Peptococcus prevotii ATCC 9321; assay: as above; type: cell-based; conditions: Anaerococcus prevotii, ATCC9321, anaerobic, read-out: minimum inhibitory concentration (MIC)
[14] = tested on: Escherichia coli NIHJ JC-2; assay: as above; type: cell-based; conditions: NIHJJC2, aerobic, read-out: minimum inhibitory concentration (MIC)
[15] = tested on: Alcaligenes faecalis IFO 13111; assay: as above; type: cell-based; conditions: IFO13111, aerobic, read-out: minimum inhibitory concentration (MIC)
[16] = tested on: Bacteroides fragilis NR 2583; assay: as above; type: cell-based; conditions: NR2583, anaerobic, read-out: minimum inhibitory concentration (MIC)
[17] = tested on: Bifidobacterium adolescentis ATCC 15703; assay: as above; type: cell-based; conditions: ATCC15703, anaerobic, read-out: minimum inhibitory concentration (MIC)
[18] = tested on: Serratia marcescens IFO 12648; assay: as above; type: cell-based; conditions: IFO12648, aerobic, read-out: minimum inhibitory concentration (MIC)
[19] = tested on: Proteus rettgeri ATCC 14505; assay: as above; type: cell-based; conditions: Providencia rettgeri, ATCC14505, aerobic, read-out: minimum inhibitory concentration (MIC)
[20] = tested on: Pseudomonas stutzeri IFO 12695; assay: as above; type: cell-based; conditions: Stutzerimonas stutzeri, IFO12695, aerobic, read-out: minimum inhibitory concentration (MIC)
[21] = tested on: Peptostreptococcus anaerobius NR 2743; assay: as above; type: cell-based; conditions: NR2743, anaerobic, read-out: minimum inhibitory concentration (MIC)
Escherichia coli NR 2630 = assay: as above; type: cell-based; conditions: NR2630; Escherichia coli NR 2630; aerobic; agar dilution; read-out: minimum inhibitory concentration (MIC)
[22] = tested on: Citrobacter freundii IFO 12681; assay: as above; type: cell-based; conditions: IFO12681, aerobic, read-out: minimum inhibitory concentration (MIC)
[23] = tested on: Myoplasma hominis NR 2952; assay: as above; type: cell-based; conditions: read-out: minimum inhibitory concentration (MIC)
[24] = tested on: Enterobacter cloacae NR 2946; assay: as above; type: cell-based; conditions: NR2946, aerobic, read-out: minimum inhibitory concentration (MIC)
[25] = tested on: Staphylococcus aureus NR 2855; assay: as above; type: cell-based
[26] = tested on: Bacteroides fragilis NR 2584; assay: as above; type: cell-based; conditions: NR2584, anaerobic, read-out: minimum inhibitory concentration (MIC)
[27] = acute toxicity by oral administration; conditions: mouse, in vivo, po
From the text: The acute toxicity of these compounds was examined by oral administration in ICR mice.

[28] = tested on: Enterococcus faecalis NR 2943; assay: in vitro antibacterial activity, standard agar dilution method; type: cell-based; conditions: NR2943, aerobic, read-out: minimum inhibitory concentration (MIC)
[29] = tested on: Staphylococcus aureus Smith; assay: as above; type: cell-based; conditions: Staphylococcus aureus Smith; aerobic; agar dilution; read-out: minimum inhibitory concentration (MIC)
[30] = tested on: Bacteroides fragilis NR 2579; assay: as above; type: cell-based; conditions: NR2579, anaerobic, read-out: minimum inhibitory concentration (MIC)

Structure (SMILES) | MIC [1] [µg/mL] | MIC [2] [µg/mL] | ED50 [3] [mg/kg] | MIC [4] [µg/mL] | MIC [5] [µg/mL] | MIC [6] [µg/mL] | MIC [7] [µg/mL] | MIC [8] [µg/mL] | MIC [9] [µg/mL] | MIC [10] [µg/mL] | MIC [11] [µg/mL] | MIC [12] [µg/mL] | MIC [13] [µg/mL] | MIC [14] [µg/mL] | MIC [15] [µg/mL] | MIC [16] [µg/mL] | MIC [17] [µg/mL] | MIC [18] [µg/mL] | MIC [19] [µg/mL] | MIC [20] [µg/mL] | other results
CN1CCN(c2c(F)cc3c(=O)c(C(=O)O)cn4c3c2OCN4C)CC1 [Example 5, 9-fluoro-3-methyl-10-(4-methyl-1-piperazinyl)-7-oxo-2,3-dihydro-7H-pyrido[3,2,1-ij]-1,3,4-benzoxadiazine-6-carboxylic acid] | 0.78 (≈ 2.15 µM) | 0.05 (≈ 0.138 µM) | 13.4 | 0.013 (≈ 0.0359 µM) | 1.56 (≈ 4.31 µM) | 0.39 (≈ 1.08 µM) | 0.025 (≈ 0.069 µM) | 0.78 (≈ 2.15 µM) | 0.78 (≈ 2.15 µM) | 0.78 (≈ 2.15 µM) | 0.2 (≈ 0.552 µM) | 0.39 (≈ 1.08 µM) | 1.56 (≈ 4.31 µM) | 0.025 (≈ 0.069 µM) | 0.39 (≈ 1.08 µM) | 0.39 (≈ 1.08 µM) | 0.39 (≈ 1.08 µM) | 0.1 (≈ 0.276 µM) | 0.2 (≈ 0.552 µM) | 0.025 (≈ 0.069 µM) | MIC [21]: 0.39 µg/mL (≈ 1.08 µM); MIC (Escherichia coli NR 2630): 0.013 µg/mL (≈ 0.0359 µM); MIC [22]: 0.013 µg/mL (≈ 0.0359 µM); MIC [23]: 0.1 µg/mL (≈ 0.276 µM); MIC [24]: 0.025 µg/mL (≈ 0.069 µM); MIC ([25]; NR2855, Staphylococcus aureus NR 2855, aerobic, agar dilution, read-out: minimum inhibitory concentration (MIC)): 0.2 µg/mL (≈ 0.552 µM); MIC [26]: 0.78 µg/mL (≈ 2.15 µM); LD50 [27]: > 2000 mg/kg; MIC [28]: 3.13 µg/mL (≈ 8.64 µM); MIC [29]: 0.2 µg/mL (≈ 0.552 µM); MIC [30]: 3.13 µg/mL (≈ 8.64 µM)
CN1COc2c(N3CCC(N)C3)c(F)cc3c(=O)c(C(=O)O)cn1c23 (centres unmarked) [Example 30, 10-(3-amino-1-pyrrolidinyl)-9-fluoro-3-methyl-7-oxo-2,3-dihydro-7H-pyrido[3,2,1-ij]-1,3,4-benzoxadiazine-6-carboxylic acid] | 0.2 (≈ 0.574 µM) | 0.025 (≈ 0.0718 µM) | 57 | 0.0033 (≈ 0.00947 µM) | 0.78 (≈ 2.24 µM) | 0.1 (≈ 0.287 µM) | 0.0065 (≈ 0.0187 µM) | 0.1 (≈ 0.287 µM) | 0.2 (≈ 0.574 µM) | 0.39 (≈ 1.12 µM) | 0.05 (≈ 0.144 µM) | 0.2 (≈ 0.574 µM) | 0.39 (≈ 1.12 µM) | 0.013 (≈ 0.0373 µM) | 1.56 (≈ 4.48 µM) | 0.1 (≈ 0.287 µM) | 0.1 (≈ 0.287 µM) | 0.05 (≈ 0.144 µM) | 0.1 (≈ 0.287 µM) | 0.0033 (≈ 0.00947 µM) | MIC [21]: 0.013 µg/mL (≈ 0.0373 µM); MIC (Escherichia coli NR 2630): 0.0065 µg/mL (≈ 0.0187 µM); MIC [22]: 0.013 µg/mL (≈ 0.0373 µM); MIC [23]: 0.1 µg/mL (≈ 0.287 µM); MIC [24]: 0.013 µg/mL (≈ 0.0373 µM); MIC ([25]; Staphylococcus aureus, NR2855, read-out: minimum inhibitory concentration (MIC)): 0.39 µg/mL (≈ 1.12 µM); MIC [26]: 0.78 µg/mL (≈ 2.24 µM); LD50 [27]: > 2000 mg/kg; MIC [28]: 3.13 µg/mL (≈ 8.99 µM); MIC [29]: 0.05 µg/mL (≈ 0.144 µM); MIC [30]: 1.56 µg/mL (≈ 4.48 µM)

Reference: patent US4864023A, “Pyrido(3,2,1-IJ)-1,3,4-benzoxadiazine derivatives” (priority 1988, dated 1989)
